According to US20030049597A1, “Chimeric fluorescent enzymes and uses thereof” (priority 2001, published 2003):
Read-outs that look alike come from different tables or passages of the source. Values belong to the compound of their own block, whether it stands above or below them.

Columns and labels:
PgpGFP [1] = molecular target: T1, PgpGFP (Homo sapiens, UniProt P08183); assay: Drug mediated microtubule depolymerization in PgpGFP transfected HeLa cells (anti-b-tubulin immunofluorescence); settings: for effect of PgpGFP expression on sensitivity of cells to the drug: microtubule depolymerization, 30 min
Experimental: Cells were plated on 18 mm glass coverslips placed in 12-well dishes. […] For tubulin staining, cells were incubated for 30 minutes in the presence of indicated concentrations of vincristine (Calbiochem), colchicine (Calbiochem) or nocodazole (Sigma). Cells were then fixed, permeabilized, and labeled with 2 μg/ml Cy3-labeled anti-b-tubulin antibody, clone TUB 2.1 (Sigma).
We used a functional assay to quantify the effect of PgpGFP expression on the cytosolic activity of chemotherapeutics. Certain chemotherapeutics, such as colchicine, vincristine and nocodazole, depolymerize microtubules. The state of a cell's microtubules after being treated with these drugs is a measurement of the cellular concentration of the drug. Thus, we examined the microtubules using immunofluorescence against b-tubulin after drug treatment.

PgpGFP [2] = molecular target: T1, PgpGFP
Experimental: (§1) HeLa cells (ATCC CCL-2) were cultured as per ATCC recommendations.
(§2) Epifluorescence microscopy was done on an inverted IX-70 microscope (Olympus America, Melville, N.Y.). […] Excitation was provided using a 150 Watt Xenon arc lamp (OptiQuip, Beaver Falls, Pa.). Excitation and emission filters were selected using filter wheels (Ludl Electronic Products, Hawthorne, N.Y.). All filters were from Chroma Technology (Brattleboro, Vt.).
(§3) Confocal microscopy was done on an upright Axiplan 2 microscope with a LSM 510 confocal attachment (Carl Zeiss, Thomwood, N.Y.). Excitation was provided an Argon/Krypton laser with lines at 488 nm and 568 nm and a Helium/Neon laser at 633 nm. The following laser lines and emission filters were used for confocal microscopy: GFP λex=488 nm, λem=500-530 nm, Texas Red, Cy3, TMRE: λex=568 nm, λem=580 nm LP, Fura Red, daunorubicin: λex=488 nm, λem=580 nm LP.
(§4) All fluorescent dyes were from Molecular Probes. Daunorubicin was from Calbiochem. Cells were incubated with the indicated drug or dye for the indicated amount of time in Opti-MEM without phenol red and with 10 mM Hepes (Life Technologies, Rockville, Md.) in a 5% CO2, 37° C. incubator prior to observation.

PgpGFP [3] = molecular target: T1, PgpGFP; assay: Accumulation of fluorescent drugs and dyes in PgpGFP transfected HeLa cells (fluorescence microscopy); settings: 30 min incubation, 1 μM daunorubicin (confocal), 200 nM Ho342 (epifluorescence)
Experimental: as §1, §2, §3, §4

PgpCFP = PgpCFP (Homo sapiens, UniProt P08183); assay: Accumulation of AM ester dyes in PgpCFP transfected cells (fluorescence microscopy); settings: dyes marked (CFP)
PgpCFP, sequence (P08183 whole entry): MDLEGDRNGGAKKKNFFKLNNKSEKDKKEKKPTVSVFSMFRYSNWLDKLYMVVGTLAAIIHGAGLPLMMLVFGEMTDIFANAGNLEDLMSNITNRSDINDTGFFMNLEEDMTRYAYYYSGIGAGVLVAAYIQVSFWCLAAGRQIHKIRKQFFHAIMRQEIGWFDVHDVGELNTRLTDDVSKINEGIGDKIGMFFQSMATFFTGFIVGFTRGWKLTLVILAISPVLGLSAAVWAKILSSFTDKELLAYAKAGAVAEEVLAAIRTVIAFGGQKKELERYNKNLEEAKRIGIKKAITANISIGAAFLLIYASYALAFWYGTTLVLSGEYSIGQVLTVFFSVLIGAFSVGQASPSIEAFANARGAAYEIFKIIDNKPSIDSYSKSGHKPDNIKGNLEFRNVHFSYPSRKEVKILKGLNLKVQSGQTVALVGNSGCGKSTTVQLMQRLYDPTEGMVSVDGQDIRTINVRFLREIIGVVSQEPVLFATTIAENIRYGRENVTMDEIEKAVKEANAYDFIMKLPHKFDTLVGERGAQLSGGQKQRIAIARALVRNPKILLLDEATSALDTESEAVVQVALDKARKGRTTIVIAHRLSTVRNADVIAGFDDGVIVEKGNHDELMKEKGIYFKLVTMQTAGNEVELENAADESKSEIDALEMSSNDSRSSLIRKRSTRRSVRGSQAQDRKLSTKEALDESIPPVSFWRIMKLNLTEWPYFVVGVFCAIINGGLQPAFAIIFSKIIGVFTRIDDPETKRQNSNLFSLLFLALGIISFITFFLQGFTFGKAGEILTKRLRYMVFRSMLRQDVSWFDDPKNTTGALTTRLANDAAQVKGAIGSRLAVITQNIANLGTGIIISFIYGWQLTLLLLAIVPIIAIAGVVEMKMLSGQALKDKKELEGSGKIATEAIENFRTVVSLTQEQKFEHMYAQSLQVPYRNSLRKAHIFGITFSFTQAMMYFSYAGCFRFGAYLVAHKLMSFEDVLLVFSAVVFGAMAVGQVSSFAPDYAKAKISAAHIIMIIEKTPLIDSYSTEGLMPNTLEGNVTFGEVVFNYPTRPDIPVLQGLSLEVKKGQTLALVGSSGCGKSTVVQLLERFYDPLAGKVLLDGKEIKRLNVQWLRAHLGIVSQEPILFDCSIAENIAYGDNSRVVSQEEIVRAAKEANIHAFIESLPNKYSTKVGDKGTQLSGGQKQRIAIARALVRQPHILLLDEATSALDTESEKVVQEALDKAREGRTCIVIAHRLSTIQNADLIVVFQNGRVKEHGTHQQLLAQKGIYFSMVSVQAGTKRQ

T1 sequence (P08183 whole entry): as above

Compound: COc1cc2c(c(OC)c1OC)-c1ccc(OC)c(=O)cc1[C@@H](NC(C)=O)CC2 [Colchicine, colchicine]
Fold resistance (high level PgpGFP expression, drug mediated microtubule depolymerization) (PgpGFP [1]; high level PgpGFP expression): 5-25 fold | effect of PgpGFP expression on sensitivity of cells to the drug (PgpGFP [1]): decreased the sensitivity

Effects on fluorescence (effect of PgpGFP expression on accumulation of AM esters) (PgpGFP [2]): >10 Fold
Compound: CC(=O)OCOC(=O)CN(CC(=O)OCOC(C)=O)c1ccc(C)cc1OCCOc1cc2cc(C=C3NC(=S)NC3=O)oc2cc1N(CC(=O)OCOC(C)=O)CC(=O)OCOC(C)=O [FURA Red AM]

Effects on fluorescence (effect of PgpGFP expression on accumulation of AM esters) (PgpGFP [2]): >10 Fold
Compound: CC(=O)OCOC(=O)CN(CC(=O)OCOC(C)=O)c1ccc(C)cc1OCCOc1cc2cc(-c3ncc(C(=O)OCOC(C)=O)o3)oc2cc1N(CC(=O)OCOC(C)=O)CC(=O)OCOC(C)=O [FURA-2 AM]

Compound: CCOc1ccc(-c2nc3ccc(-c4nc5ccc(N6CCN(C)CC6)cc5[nH]4)cc3[nH]2)cc1 [Ho342, Hoechst 33342]
fluorescence lower in PgpGFP expressing cell compared to Pgp negative cell (PgpGFP [3]): 3 fold

Compound: COC(=O)Nc1nc2ccc(C(=O)c3cccs3)cc2[nH]1 [Nocodazole, nocodazole]
Fold resistance (high level PgpGFP expression, drug mediated microtubule depolymerization) (PgpGFP [1]; high level PgpGFP expression): None | effect of PgpGFP expression on sensitivity of cells to the drug (PgpGFP [1]): no effect

Fold resistance (high level PgpGFP expression, drug mediated microtubule depolymerization) (PgpGFP [1]): 25-125 fold
Compound: CC[C@]1(O)C[C@H]2CN(CCc3c([nH]c4ccccc34)[C@@](C(=O)OC)(c3cc4c(cc3OC)N(C=O)[C@H]3[C@@](O)(C(=O)OC)[C@H](OC(C)=O)[C@]5(CC)C=CCN6CC[C@]43[C@@H]65)C2)C1 [Vincristine, vincristine]

Compound: Calcein AM
Effects on fluorescence (effect of PgpCFP expression on accumulation of AM esters) (PgpCFP): >10 Fold
